Test results taken from patent US7381748B1, “Compounds and related methods for inhibition of gamma-aminobutyric acid aminotransferase” (Northwestern University, priority 2002, dated 2008).
Counter-ions that a name gives are not always drawn. Like-named read-outs stand apart in the source and are kept apart here.

Experiments:
GABA-AT [1] = biological target: T1, GABA-AT (Sus scrofa, UniProt P80147); conditions: cited from earlier work
T1 construct: purchased

GABA-AT [2] = biological target: T1, GABA-AT; conditions: as substrate of GABA-AT; cited from earlier work
GABA-AT [3] = biological target: T1, GABA-AT; test: Time-dependent inactivation of GABA-AT; type: biochemical
Excerpt: Fluorine incorporation may also make a corresponding intermediate sufficiently reactive to be trapped by the enzyme. While the cis isomer is shown in Scheme 6.
Then a secondary plot of half-life versus the reciprocal of inactivator concentration was obtained to determine KI and kinact.

T1 sequence (P80147 29-500): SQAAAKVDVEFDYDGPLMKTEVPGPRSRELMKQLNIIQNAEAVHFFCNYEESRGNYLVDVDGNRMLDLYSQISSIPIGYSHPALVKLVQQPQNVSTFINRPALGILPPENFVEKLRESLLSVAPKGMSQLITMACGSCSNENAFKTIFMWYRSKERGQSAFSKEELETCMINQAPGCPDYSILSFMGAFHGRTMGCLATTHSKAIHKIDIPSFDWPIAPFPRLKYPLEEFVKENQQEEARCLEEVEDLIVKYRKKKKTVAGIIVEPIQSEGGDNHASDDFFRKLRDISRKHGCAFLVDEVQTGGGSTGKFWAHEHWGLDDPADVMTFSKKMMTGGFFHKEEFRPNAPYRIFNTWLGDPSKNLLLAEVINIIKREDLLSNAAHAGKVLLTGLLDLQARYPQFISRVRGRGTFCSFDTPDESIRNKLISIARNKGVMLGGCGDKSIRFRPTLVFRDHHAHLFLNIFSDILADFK

C=C1C[C@H](C(=O)O)C[C@@H]1N [Compound 7, 3β-Amino-4-methylenylcyclopentane-1β-carboxylic acid]
GABA-AT inactivation (in words) (GABA-AT [1]; 2-mercaptoethanol added to the incubation mixture): no inactivation was observed
GABA-AT inactivation (in words) (GABA-AT [1]; no 2-mercaptoethanol added): inactivated GABA-AT

NCCCC(=O)O [GABA, γ-aminobutyric acid]
Km (GABA-AT [2]): 2400 µM
kcat (GABA-AT [2]): 0.817 s⁻¹

NC1CC(C(=O)O)C/C1=C\F [Compound 20, (E)-(1S, 3S)-3-Amino-4-fluoromethylenyl-1-cyclopentanoic acid, hydrochloride salt]
time-dependent inhibition of GABA-AT (in words) (GABA-AT [3]): potent time-dependent inhibitors of GABA-AT

C=CC(N)CCC(=O)O (stereo not shown) [vigabatrin]
share of total inactivation accounted for by pathway a (Michael addition) (GABA-AT [1]): 70-75%

NC1CC(C(=O)O)C/C1=C/F [Compound 22, (Z)-(1S, 3S)-3-Amino-4-fluoromethylenyl-1-cyclopentanoic acid, hydrochloride salt]
time-dependent inhibition of GABA-AT (in words) (GABA-AT [3]): potent time-dependent inhibitors of GABA-AT
